Calls of active or inactive are those of the source. The calls are words filed in the database; no cut-off is given here.
What was measured:
Rhesus monkey [1] = assay: Reduction in morphine dependence in withdrawn rhesus monkey model assessed as attenuation of withdrawal effects at 0.5 mg/kg; format: functional, organism-based; design: dose 0.5 mg/kg; settings: Macaca mulatta
Rhesus monkey [2] = assay: Reduction in morphine dependence in withdrawn rhesus monkey model assessed as attenuation of withdrawal effects at 0.1 mg/kg; format: functional, organism-based; design: dose 0.1 mg/kg; settings: Macaca mulatta
[3] = target: Kappa-type opioid receptor (Cavia porcellus, UniProt P41144); assay: Agonist activity at KOR in guinea pig vas deferens; format: functional, tissue-based
Kappa-type opioid receptor, sequence (P41144 whole entry): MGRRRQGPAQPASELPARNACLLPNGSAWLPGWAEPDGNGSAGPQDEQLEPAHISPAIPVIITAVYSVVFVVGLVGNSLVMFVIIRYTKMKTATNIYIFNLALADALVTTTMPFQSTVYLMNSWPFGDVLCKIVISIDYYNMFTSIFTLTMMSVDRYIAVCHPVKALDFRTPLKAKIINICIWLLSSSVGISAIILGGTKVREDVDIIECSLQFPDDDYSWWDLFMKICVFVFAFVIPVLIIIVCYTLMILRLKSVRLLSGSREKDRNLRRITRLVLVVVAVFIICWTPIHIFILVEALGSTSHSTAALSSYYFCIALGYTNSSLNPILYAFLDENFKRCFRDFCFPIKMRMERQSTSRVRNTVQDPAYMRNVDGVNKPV

Mu-type opioid receptor = Mu-type opioid receptor (Cavia porcellus, UniProt P97266); assay: Agonist activity at MOR in guinea pig vas deferens; format: functional, tissue-based
Mu-type opioid receptor, sequence (P97266 whole entry): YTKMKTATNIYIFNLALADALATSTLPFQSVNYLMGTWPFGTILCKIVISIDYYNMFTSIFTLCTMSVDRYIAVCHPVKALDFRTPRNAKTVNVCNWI

[4] = Agonist activity at DOR in guinea pig vas deferens; format: functional, tissue-based; settings: Cavia porcellus
[5] = Displacement of [3H]Cl-DPDPE from DOR in guinea pig brain membrane
Mus musculus = assay: Antinociceptive activity in mouse assessed as tail withdrawal latency at 100 mg/kg by 55 degC warm water test; format: functional

With `COC(=O)/C=C/C(=O)N[C@@]12CCC(=O)[C@@H]3Oc4c(O)ccc5c4[C@@]31CCN(CC1CC1)[C@@H]2C5` the Activity (Rhesus monkey [1]) was “inactive” and the Activity (Rhesus monkey [2]) was “inactive”.

For `CO[C@]12CC[C@@]3(C[C@@H]1[C@](C)(O)C(C)(C)C)[C@H]1Cc4ccc(O)c5c4[C@@]3(CCN1CC1CC1)[C@H]2O5` [BUPRENORPHINE], the EC50 [3] was 21 nM and the EC50 (Mu-type opioid receptor) was 21 nM.

`CO[C@@]12CC[C@@]3(C[C@@H]1[C@](C)(O)C(C)(C)C)[C@H]1Cc4ccc(O)c5c4[C@@]3(CCN1CC1CC1)[C@H]2O5` [BUPRENORPHINE] gave an EC50 [4] of 21 nM and a Ki [5] of 1.6 nM.

`CN1CC[C@]23c4c5ccc(O)c4O[C@H]2[C@@H](O)C=C[C@H]3[C@H]1C5` [MORPHINE] showed an Activity (Mus musculus) of 100%.

— ChEMBL document CHEMBL2176977 (J Med Chem, 2012)
